Laboratory results reported in PubChem BioAssay AID248 (DTP/NCI, 2004).
Inconclusive results and toxic doses are left out. Cut-off read from the data, not from the text of the source: active = T/C of 150% or more; inactive = T/C below 125%.

System: L1210 leukemia ip in BDF1 mice, survival T/C
Assay: NCI In Vivo Anticancer Drug Screen. Data for tumor model L1210 Leukemia (intraperitoneal) in B6D2F1 (BDF1) mice
Conditions: endpoint: mean survival time, higher = longer survival
Method in brief: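 Transplantable tumor model; survival measured in treated vs vehicle control mice. Value = treated/control.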

[1] = dose: 50.0 mg/kg/injection, schedule: Q01DX009 (ip), vehicle: Klucel (hydroxypropylcellulose) (HPC)
[2] = dose: 100.0 mg/kg/injection, schedule: Q01DX009 (ip), vehicle: Klucel (hydroxypropylcellulose) (HPC)
[3] = dose: 6.25 mg/kg/injection, schedule: Q04DX003 (ip), vehicle: saline
[4] = dose: 12.5 mg/kg/injection, schedule: Q04DX003 (ip), vehicle: saline
[5] = dose: 100.0 mg/kg/injection, schedule: Q04DX003 (ip), vehicle: Klucel (hydroxypropylcellulose) (HPC)
[6] = dose: 200.0 mg/kg/injection, schedule: Q04DX003 (ip), vehicle: Klucel (hydroxypropylcellulose) (HPC)
[7] = dose: 400.0 mg/kg/injection, schedule: Q04DX003 (ip), vehicle: Klucel (hydroxypropylcellulose) (HPC)

Measured: T/C

Nc1nc2c(nc(NO)n2C2OC(CO)C(O)C2O)c(=O)[nH]1 (centres undefined)
inactive: dose: 50.0 mg/kg/injection, schedule: Q01DX001 (ip), vehicle: carboxymethylcellulose (CMC) 95 % of control | dose: 100.0 mg/kg/injection, schedule: Q01DX001 (ip), vehicle: carboxymethylcellulose (CMC) 110 % of control | dose: 200.0 mg/kg/injection, schedule: Q01DX001 (ip), vehicle: carboxymethylcellulose (CMC) 101 % of control

S=P(CP(c1ccccc1)c1ccccc1)(c1ccccc1)c1ccccc1
inactive: dose: 100.0 mg/kg/injection, schedule: Q04DX002 (sc), vehicle: olive oil, sesame oil, peanut oil 100 % of control | dose: 200.0 mg/kg/injection, schedule: Q04DX002 (sc), vehicle: olive oil, sesame oil, peanut oil 107 % of control | dose: 400.0 mg/kg/injection, schedule: Q04DX002 (sc), vehicle: olive oil, sesame oil, peanut oil 104 % of control

ClC1=C2C=CC=CC2C(Cl)(c2ccccc2)C2C1=C(Cl)c1ccccc1C2(Cl)c1ccccc1 (centres undefined)
inactive: dose: 75.0 mg/kg/injection, schedule: Q01DX001 (ip), vehicle: saline 95 % of control | dose: 150.0 mg/kg/injection, schedule: Q01DX001 (ip), vehicle: saline 97 % of control | dose: 300.0 mg/kg/injection, schedule: Q01DX001 (ip), vehicle: saline 90 % of control

Cc1ccc(S(=O)(=O)NNC(=O)c2ccccc2NCCO)cc1
inactive: dose: 100.0 mg/kg/injection, schedule: Q01DX001 (ip), vehicle: saline 101 % of control | dose: 200.0 mg/kg/injection, schedule: Q01DX001 (ip), vehicle: saline 101 % of control | dose: 400.0 mg/kg/injection, schedule: Q01DX001 (ip), vehicle: saline 103 % of control

CC(NC(=O)CCN)C(=O)O (centres undefined)
inactive: dose: 25.0 mg/kg/injection, schedule: Q04DX002 (ip), vehicle: saline 96 % of control | dose: 50.0 mg/kg/injection, schedule: Q04DX002 (ip), vehicle: saline 89 % of control | dose: 100.0 mg/kg/injection, schedule: Q04DX002 (ip), vehicle: saline 102 % of control

O=C1C2=C(NC1(c1ccccc1)c1ccccc1)c1ccccc1C2
inactive: [1] 101 % of control | [2] 105 % of control | dose: 200.0 mg/kg/injection, schedule: Q01DX009 (ip), vehicle: Klucel (hydroxypropylcellulose) (HPC) 97 % of control

CC(=O)OC1OC2COC(C)(C)OCC2C(OC(C)=O)C1OC(C)=O (centres undefined)
inactive: dose: 100.0 mg/kg/injection, schedule: Q01DX001 (ip), vehicle: saline with Tween-80 96 % of control | dose: 200.0 mg/kg/injection, schedule: Q01DX001 (ip), vehicle: saline with Tween-80 104 % of control

NC1=N/C(=C/[N+](=O)[O-])c2ccccc21
inactive: [3] 93 % of control | [4] 96 % of control

S=c1cccc[nH]1
inactive: [5] 101 % of control | [6] 102 % of control | [7] 96 % of control

CCCCCCCCCCCC[N+](C)(C)C (tested in a mixture with another compound)
inactive: dose: 1.25 mg/kg/injection, schedule: Q01DX015 (ip), vehicle: saline 101 % of control | dose: 2.5 mg/kg/injection, schedule: Q01DX015 (ip), vehicle: saline 95 % of control | dose: 3.12 mg/kg/injection, schedule: Q01DX009 (ip), vehicle: saline 92 % of control | dose: 3.12 mg/kg/injection, schedule: Q04DX003 (ip), vehicle: saline 98 % of control | dose: 5.0 mg/kg/injection, schedule: Q01DX015 (ip), vehicle: saline 101 % of control | dose: 5.0 mg/kg/injection, schedule: Q04DX003 (ip), vehicle: saline 107 % of control | dose: 6.25 mg/kg/injection, schedule: Q01DX009 (ip), vehicle: saline 94 % of control | [3] 98 % of control | dose: 10.0 mg/kg/injection, schedule: Q01DX015 (ip), vehicle: saline 98 % of control | dose: 10.0 mg/kg/injection, schedule: Q04DX003 (ip), vehicle: saline 112 % of control | dose: 12.5 mg/kg/injection, schedule: Q01DX009 (ip), vehicle: saline 105 % of control | [4] 95 % of control | dose: 18.0 mg/kg/injection, schedule: Q01DX009 (ip), vehicle: saline 90 % of control | dose: 20.0 mg/kg/injection, schedule: Q01DX015 (ip), vehicle: saline 98 % of control | dose: 20.0 mg/kg/injection, schedule: Q04DX003 (ip), vehicle: saline 93 % of control | dose: 37.5 mg/kg/injection, schedule: Q01DX001 (ip), vehicle: saline 101 % of control | dose: 40.0 mg/kg/injection, schedule: Q01DX015 (ip), vehicle: saline 100 % of control | dose: 40.0 mg/kg/injection, schedule: Q04DX003 (ip), vehicle: Klucel (hydroxypropylcellulose) (HPC) 90 % of control

CCOC(=O)CC(N)C(=O)OCC (centres undefined)
inactive: dose: 100.0 mg/kg/injection, schedule: Q01DX009 (ip), vehicle: saline 98 % of control | [5] 99 % of control | dose: 100.0 mg/kg/injection, schedule: Q04DX003 (ip), vehicle: saline 88 % of control | dose: 200.0 mg/kg/injection, schedule: Q01DX009 (ip), vehicle: saline 95 % of control | [6] 100 % of control | dose: 200.0 mg/kg/injection, schedule: Q04DX003 (ip), vehicle: saline 93 % of control | dose: 400.0 mg/kg/injection, schedule: Q01DX009 (ip), vehicle: saline 97 % of control | [7] 87 % of control | dose: 400.0 mg/kg/injection, schedule: Q04DX003 (ip), vehicle: saline 102 % of control

CCOP(=O)(OCC)O/N=C(/SC)C(C)C
inactive: dose: 5.0 mg/kg/injection, schedule: Q01DX001 (ip), vehicle: saline 100 % of control | dose: 10.0 mg/kg/injection, schedule: Q01DX001 (ip), vehicle: saline 111 % of control | dose: 20.0 mg/kg/injection, schedule: Q01DX001 (ip), vehicle: saline 103 % of control | dose: 40.0 mg/kg/injection, schedule: Q01DX001 (ip), vehicle: saline 100 % of control | dose: 80.0 mg/kg/injection, schedule: Q01DX001 (ip), vehicle: saline 116 % of control

O=C(O)c1ccc2c(c1)NC(c1cccc3ccccc13)NC2=O (centres undefined)
inactive: [1] 93 % of control | [2] 94 % of control | dose: 150.0 mg/kg/injection, schedule: Q01DX009 (ip), vehicle: Klucel (hydroxypropylcellulose) (HPC) 96 % of control

CCOC(=O)c1ccc(N=NN(C)C2CCCCC2)cc1
inactive: dose: 100.0 mg/kg/injection, schedule: Q01DX001 (sc), vehicle: olive oil, sesame oil, peanut oil 102 % of control | dose: 100.0 mg/kg/injection, schedule: Q01DX009 (sc), vehicle: olive oil, sesame oil, peanut oil 104 % of control | dose: 100.0 mg/kg/injection, schedule: Q04DX003 (sc), vehicle: olive oil, sesame oil, peanut oil 102 % of control | dose: 200.0 mg/kg/injection, schedule: Q01DX001 (sc), vehicle: olive oil, sesame oil, peanut oil 102 % of control | dose: 200.0 mg/kg/injection, schedule: Q01DX009 (sc), vehicle: olive oil, sesame oil, peanut oil 116 % of control | dose: 200.0 mg/kg/injection, schedule: Q04DX003 (sc), vehicle: olive oil, sesame oil, peanut oil 103 % of control | dose: 400.0 mg/kg/injection, schedule: Q01DX001 (sc), vehicle: olive oil, sesame oil, peanut oil 98 % of control | dose: 400.0 mg/kg/injection, schedule: Q01DX009 (sc), vehicle: olive oil, sesame oil, peanut oil 104 % of control | dose: 400.0 mg/kg/injection, schedule: Q04DX003 (sc), vehicle: olive oil, sesame oil, peanut oil 100 % of control
